The record followed here is PubChem BioAssay AID2060896 (Molecular Pharmacology Branch, DTP, NCI, 2025).

Where “and” joins values, the source holds several entries; their conditions need not be identical. Identical values can stand only once.

The subject of this assay is 941728-121-R-J1-PDC complex spheroid viability. In words: Anticancer human tumor 941728-121-R-J1-PDC patient-derived lung adenocarcinoma cell line growth inhibition [RAS]. The following applies: for viability, T/C: stronger effect = lower value. The source says:
RAS pathway inhibitors in Combinations in Complex Spheroids
A high-throughput screen of multi-cell type tumor spheroids was designed to identify active combinations of RAS pathway inhibitors and targeted small molecules. Complex spheroids include a stromal component modeled by human endothelial cells (HUVEC) and fibroblasts modeled by human mesenchymal stem cells (MSCs). The concentration ranges selected for each drug and investigational agent were based upon clinically achievable concentrations if the clinical Cmax of the agent was known.
Compounds. The drugs and investigational agents: abemaciclib (NSC768073), cobimetinib (NSC768068), divarasib (GDC6063, NSC841802), docetaxel (NSC628503), GDC-1971 (RLY-1971, NSC841576), gemcitabine (NSC613327), inavolisib (NSC800729), ipatasertib (NSC767898), KB-0742 (NSC834161), MRTX-1133 (NSC836407), osimertinib (NSC779217), RMC-4630 (NSC839698), RMC-6236 (NSC851965), RMC-6291 (NSC852671), Ro-3306 (NSC812927), sapanisertib (NSC764658), SN-38 (NSC673596), staurosporine (NSC755774), SY5609 (NSC837396), and tovorafenib (DAY101, NSC766906), were obtained from the National Cancer Institute (NCI) Developmental Therapeutics Program Chemical Repository. The FDA-approved anticancer drug set is available from the NCI Developmental Therapeutics Program. […] The stock solutions were prepared in dimethyl sulfoxide (DMSO, Sigma-Aldrich, St. Louis, MO, cat. D2650) at 800-fold the tested concentration and stored at -70 degrees C prior to their use. All drugs and investigational agents were tested over a range starting from a high concentration at or near the clinical Cmax and decreasing in half-log increments. If the clinical Cmax for an agent had not been determined, the highest concentration tested was 10 microM.
Cell Culture. All cells were maintained in an incubator at 37 degrees C and 5% CO2 with 95% humidity. The PDC lines were cultured according to standard operating procedures established by the NCI PDMR. All PDCs were thawed and cultured in Matrigel-coated flasks prepared with a working solution of 1X Ham's F-12 nutrient mix, without supplementation (Invitrogen, Waltham, MA, cat. 11765054), 100 U/mL penicillin-streptomycin (Invitrogen, cat. 15140122), and 2.5% Matrigel (Corning Inc., Corning, NY, cat. 354248) for the first three passages. The 362531-283-R-J2-PDC and 782815-120-R-J1-PDC lines were cultured in 6C/Colon 1B media, which includes advanced DMEM/F-12 (Thermo Fisher Scientific, cat. 12634028), 10 mM HEPES (Thermo Fisher Scientific, cat. 15630080), 1X GlutaMAX supplement (Thermo Fisher Scientific, cat. 35050061), 0.1 mg/mL primocin (InvivoGen, San Diego, CA, cat. ant-pm-2), 10% defined fetal bovine serum, heat inactivated (HyClone Laboratories Inc., Logan, UT, cat. SH30070.03HI), 50% L-WRN conditioned media (ATCC, cat. CRL-3276), 1.25 mM N-Acetyl-L-cysteine (Sigma-Aldrich, cat. A9165), 10 mM nicotinamide (Sigma-Aldrich, cat. N0636), 1X B-27 supplement (Thermo Fisher Scientific, cat. 17504044), 1X N-2 supplement (Thermo Fisher Scientific, cat. 17502048), 50 ng/mL human EGF (Thermo Fisher Scientific, cat. PHG0311), and 10 microM Y-27632 dihydrochloride (Tocris Bioscience, cat. 1254). The K12877-001-R-J1-PDC line was cultured in 6I media, which includes all 6C/Colon 1B media plus 10 ng/mL human FGF-10 (PeproTech, cat. 100-26), 1 ng/mL human FGF-2 (PeproTech, cat. 100-18B), 1 µM prostaglandin E2 (Tocris Bioscience, cat. 2296), […] hydrocortisone (Sigma-Aldrich, cat. H4001), and […] bovine insulin (Sigma-Aldrich, cat. I6634). The K86415-001-R-J1-PDC line was cultured in 6D media, which includes all 6C/Colon 1B media components minus the L-WRN conditioned media. The 485176-168-R4-J1-PDC was cultured in PANC media, which includes all 6C/Colon 1B media plus 100 ng/mL human FGF-10 (PeproTech, cat. 100-26), 500 nM SB-431542 (Selleckchem, cat. S1067), and 10 nM gastrin (Tocris Bioscience, cat. 3006). […]
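Note: spheroids exposed to compounds for 7 days before readout.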

In general, viability, T/C refers to the ratio of treated to control. For `CC(=O)OC12COC1CC(O)C1(C)C(=O)C(O)C3=C(C)C(OC(=O)C(O)C(NC(=O)OC(C)(C)C)c4ccccc4)CC(O)(C(OC(=O)c4ccccc4)C21)C3(C)C` (stereo unspecified), the viability, T/C is 51.2% [middle of 4 runs] (compound 0.0316 µM); 54.9% [middle of 4 runs] (compound 0.1 µM); 48.2% [middle of 4 runs] (compound 0.316 µM); 49% [middle of 4 runs] (compound 1 µM); 47.4% [middle of 4 runs] (compound 3.16 µM); 56.4% [middle of 4 runs] (compound 10 µM).

For orientation: IC50 means the concentration that inhibits the measured activity by half. For the compound `CC1(O)CCCC1n1c(=O)c(C(F)F)cc2cnc(NC3CCN(S(C)(=O)=O)CC3)nc21` (stereo unspecified), the viability, T/C runs as follows: (compound 0.0316 µM) 87% [middle of 4 runs]; (compound 0.1 µM) 84.6% [middle of 4 runs]; (compound 0.316 µM) 75.3% [middle of 4 runs]; (compound 1 µM) 83.9% [middle of 4 runs]; (compound 10 µM) 51.8% [middle of 4 runs]. Moreover, under “curve of compound”, the IC50 was 5.94 µM and > 10 µM and 7.43 µM.

Take `CCC(CC)c1cc(NC2CCC(N)C2)n2nccc2n1` (stereo unspecified): the viability, T/C reads like this: (compound 0.1 µM) 105% [middle of 4 runs]; (compound 0.316 µM) 95.6% [middle of 4 runs]; (compound 3.16 µM) 30.5% [middle of 4 runs]; (compound 10 µM) 44% [middle of 4 runs]. For the same compound, for the setting “curve of compound”, the IC50 was 2.03 µM and 2.53 µM and 2.05 µM.

In the case of `Cc1nc(N2CCC3(CC2)COC(C)C3N)c(CO)nc1Sc1ccnc(N)c1Cl` (stereo unspecified), the viability, T/C is, setting by setting: (compound 0.0316 µM) 65.7% [middle of 4 runs]; (compound 0.1 µM) 55.1% [middle of 4 runs]; (compound 0.316 µM) 43.4% [middle of 4 runs]; (compound 1 µM) 41.8% [middle of 4 runs]; (compound 3.16 µM) 42.2% [middle of 4 runs]; (compound 10 µM) 40.1% [middle of 4 runs].

In the case of `NC1c2ccccc2OC12CCN(c1cnc3c(N4CCCc5ncccc54)n[nH]c3n1)CC2` (stereo unspecified), the viability, T/C runs as follows: (compound 0.0316 µM) 48.2% [middle of 4 runs]; (compound 0.1 µM) 44.8% [middle of 4 runs]; (compound 0.316 µM) 36% [middle of 4 runs]; (compound 1 µM) 47.1% [middle of 4 runs]; (compound 3.16 µM) 41.8% [middle of 4 runs]; (compound 10 µM) 49% [middle of 4 runs]. Besides, where the note is “curve of compound”, the IC50 was below 0.0316 µM.

Consider `Nc1ccn(C2OC(CO)C(O)C2(F)F)c(=O)n1` (stereo unspecified), for which the viability, T/C runs as follows: (compound 0.0316 µM) 56.4% [middle of 4 runs]; (compound 0.1 µM) 57.3% [middle of 4 runs]; (compound 0.316 µM) 52.7% [middle of 4 runs]; (compound 1 µM) 43% [middle of 4 runs].

Regarding `C=CC(=O)Nc1cc(Nc2nccc(-c3cn(C)c4ccccc34)n2)c(OC)cc1N(C)CCN(C)C` + C#Cc1c(F)ccc2cc(O)cc(-c3ncc4c(N5CC6CCC(C5)N6)nc(OCC56CCCN5CC(F)C6)nc4c3F)c12, the IC50 (curve of first compound, second compound 0.0316 µM) stood at 0.142 µM; the IC50 (curve of first compound, second compound 0.1 µM) was found to be 0.0547 µM; the IC50 (curve of first compound, second compound 0.316 µM) was 0.0168 µM; the IC50 (curve of first compound, second compound 1 µM) was below 0.00316 µM; the IC50 (curve of first compound, second compound 3.16 µM) was below 0.00316 µM; the IC50 (curve of first compound, second compound 10 µM) was below 0.00316 µM. Besides, the viability, T/C is, setting by setting: (second compound 0.0316 µM, first compound 0.00316 µM) 79.4%; (second compound 0.0316 µM, first compound 0.01 µM) 70.4%; (second compound 0.0316 µM, first compound 0.0316 µM) 61.4%; (second compound 0.0316 µM, first compound 0.1 µM) 51%; (second compound 0.0316 µM, first compound 0.316 µM) 44.9%; (second compound 0.0316 µM, first compound 1 µM) 39.5%. Besides, the viability, T/C (second compound 0.1 µM, first compound 0.00316 µM) was 78.5%; the viability, T/C (second compound 0.1 µM, first compound 0.01 µM) is 65.6%; the viability, T/C (second compound 0.1 µM, first compound 0.0316 µM) was 58%; the viability, T/C (second compound 0.1 µM, first compound 0.1 µM) is 40.9%; the viability, T/C (second compound 0.1 µM, first compound 0.316 µM) was 42.1%; the viability, T/C (second compound 0.1 µM, first compound 1 µM) was 36.4%. Further, the viability, T/C runs as follows: (second compound 0.316 µM, first compound 0.00316 µM) 56.1%; (second compound 0.316 µM, first compound 0.01 µM) 57.7%; (second compound 0.316 µM, first compound 0.0316 µM) 41.7%; (second compound 0.316 µM, first compound 0.1 µM) 36.6%; (second compound 0.316 µM, first compound 0.316 µM) 32.8%; (second compound 0.316 µM, first compound 1 µM) 33.8%. Also, the viability, T/C by setting is: (second compound 1 µM, first compound 0.00316 µM) 35.2%; (second compound 1 µM, first compound 0.01 µM) 39.1%; (second compound 1 µM, first compound 0.0316 µM) 31.6%; (second compound 1 µM, first compound 0.1 µM) 29.2%; (second compound 1 µM, first compound 0.316 µM) 29.5%; (second compound 1 µM, first compound 1 µM) 30%. Besides, the viability, T/C was 30.3% (second compound 3.16 µM, first compound 0.00316 µM); 26.5% (second compound 3.16 µM, first compound 0.01 µM); 26.5% (second compound 3.16 µM, first compound 0.0316 µM); 26.1% (second compound 3.16 µM, first compound 0.1 µM); 26% (second compound 3.16 µM, first compound 0.316 µM); 24.6% (second compound 3.16 µM, first compound 1 µM). For the same compound, the viability, T/C reads like this: (second compound 10 µM, first compound 0.00316 µM) 22.1%; (second compound 10 µM, first compound 0.01 µM) 22.3%; (second compound 10 µM, first compound 0.0316 µM) 19.7%; (second compound 10 µM, first compound 0.1 µM) 19.3%; (second compound 10 µM, first compound 0.316 µM) 20%; (second compound 10 µM, first compound 1 µM) 17.5%.
